EPA's ToxValDB 9.5 (doi:10.2903/j.efsa.2015.4024)

Tested on: Rattus norvegicus
[1] = subchronic, duration: 90 days, oral, diet
[2] = subchronic, duration: 90 days, oral, gavage, M/F, Crj:CD, clinical signs

For Cc1occc1SSc1ccoc1C [Bis(2-methyl-3-furyl)disulfide], the NOEL [1] was 0.45 mg/kg-day.

Compound CC1OCCC1S (centres undefined) [Tetrahydro-2-methyl-3-furanthiol] has an NOAEL [2] of 5 mg/kg-day.

Work on CCOC(=O)CCSCc1ccco1 [Ethyl 3-(furfurylthio)propionate] yielded an NOEL (subchronic, duration: 90 days) of 17 mg/kg-day.

CSC(=O)c1ccco1 [2-Furancarbothioic acid, S-methyl ester] gave an NOAEL (subchronic, duration: 90 days, oral) of 6.63 mg/kg-day.

In the case of Cc1occc1SSSSc1ccoc1C [Bis(2-methyl-3-furyl) tetrasulfide], the NOEL (subchronic, duration: 90 days) is reported as 0.56 mg/kg-day.

With Cc1cc(SC(=O)CC(C)C)c(C)o1 [2,5-Dimethyl-3-thioisovalerylfuran] the NOEL (subchronic, duration: 90 days) was 0.73 mg/kg-day.

With CC1CC(S)C(C)O1 (centres undefined) [2,5-Dimethyltetrahydrofuran-3-thiol] the NOAEL [2] was 5 mg/kg-day.

For Cc1cc(SSc2cc(C)oc2C)c(C)o1 [Furan, 3,3'-dithiobis[2,5-dimethyl-], the NOEL [1] was 0.45 mg/kg-day.

With CC(=O)SC1=C(C)OCC1 [2-Methyl-3-thioacetoxy-4,5-dihydrofuran] the NOEL (chronic, duration: 1 years, oral, diet) was 8.3 mg/kg-day.
